Measured values published in ChEMBL document CHEMBL4138123, “Design, synthesis and biological evaluation of novel pyrazolochalcones as potential modulators of PI3K/Akt/mTOR pathway and inducers of apoptosis in breast cancer cells” (Eur J Med Chem, 2017).

Columns and labels:
[1] = test system: SK-OV-3; assay: Cytotoxicity against human SKOV3 cells assessed as cell growth at 0.01 uM after 48 hrs by sulforhodamine B assay relative to control; format: functional; settings: SK-OV-3, 48 h, read-out: Activity
[2] = test system: SR; assay: Cytotoxicity against human SR cells assessed as cell growth at 0.1 uM after 48 hrs by sulforhodamine B assay relative to control; format: functional; settings: read-out: Activity
[3] = test system: MDA-MB-468; assay: Cytotoxicity against human MDA-MB-468 cells assessed as cell growth at 0.01 uM after 48 hrs by sulforhodamine B assay relative to control; format: functional; settings: MDA-MB-468, 48 h, read-out: Activity
[4] = test system: SNB-19; assay: Cytotoxicity against human SNB19 cells assessed as cell growth at 0.01 uM after 48 hrs by sulforhodamine B assay relative to control; format: functional; settings: SNB-19, 48 h, read-out: Activity
[5] = test system: RXF 393; assay: Cytotoxicity against human RXF393 cells assessed as cell growth at 0.1 uM after 48 hrs by sulforhodamine B assay relative to control; format: functional; settings: RXF 393, 48 h, read-out: Activity
[6] = test system: A549; assay: Cytotoxicity against human A549/ATCC cells assessed as cell growth at 1 uM after 48 hrs by sulforhodamine B assay relative to control; format: functional; settings: A549, 48 h, read-out: Activity
[7] = test system: OVCAR-3; assay: Cytotoxicity against human OVCAR3 cells assessed as cell growth at 0.1 uM after 48 hrs by sulforhodamine B assay relative to control; format: functional; settings: OVCAR-3, 48 h, read-out: Activity
[8] = test system: MCF7; assay: Cytotoxicity against human MCF7 cells assessed as cell growth at 1 uM after 48 hrs by sulforhodamine B assay relative to control; format: functional; settings: MCF7, 48 h, read-out: Activity
[9] = test system: TK-10; assay: Cytotoxicity against human TK10 cells assessed as growth inhibition after 48 hrs by sulforhodamine B assay; format: functional; settings: TK-10, 48 h
[10] = test system: UACC-257; assay: Cytotoxicity against human UACC257 cells assessed as cell growth at 10 uM after 48 hrs by sulforhodamine B assay relative to control; format: functional; settings: UACC-257, 48 h, read-out: Activity
[11] = test system: UO-31; assay: Cytotoxicity against human UO31 cells assessed as cell growth at 10 uM after 48 hrs by sulforhodamine B assay relative to control; format: functional; settings: UO-31, 48 h, read-out: Activity
[12] = test system: SR; assay: Cytotoxicity against human SR cells assessed as growth inhibition after 48 hrs by sulforhodamine B assay; format: functional
[13] = test system: UACC-62; assay: Cytotoxicity against human UACC62 cells assessed as growth inhibition after 48 hrs by sulforhodamine B assay; format: functional; settings: UACC-62, 48 h
[14] = test system: BT-549; assay: Cytotoxicity against human BT549 cells assessed as cell growth at 10 uM after 48 hrs by sulforhodamine B assay relative to control; format: functional; settings: BT-549, 48 h, read-out: Activity
[15] = test system: MDA-MB-231; assay: Cytotoxicity against human MDA-MB-231 cells assessed as cell growth at 1 uM after 48 hrs by sulforhodamine B assay relative to control; format: functional; settings: MDA-MB-231, 48 h, read-out: Activity
[16] = test system: IGROV-1; assay: Cytotoxicity against human IGROV1 cells assessed as cell growth at 10 uM after 48 hrs by sulforhodamine B assay relative to control; format: functional; settings: IGROV-1, 48 h, read-out: Activity
[17] = test system: 786-0; assay: Cytotoxicity against human 786-0 cells assessed as cell growth at 0.01 uM after 48 hrs by sulforhodamine B assay relative to control; format: functional; settings: 786-0, 48 h, read-out: Activity
[18] = test system: NCI-H226; assay: Cytotoxicity against human NCI-H226 cells assessed as cell growth at 0.01 uM after 48 hrs by sulforhodamine B assay relative to control; format: functional; settings: NCI-H226, 48 h, read-out: Activity
[19] = test system: ACHN; assay: Cytotoxicity against human ACHN cells assessed as cell growth at 0.1 uM after 48 hrs by sulforhodamine B assay relative to control; format: functional; settings: read-out: Activity
[20] = test system: UACC-257; assay: Cytotoxicity against human UACC257 cells assessed as cell growth at 100 uM after 48 hrs by sulforhodamine B assay relative to control; format: functional; settings: UACC-257, 48 h, read-out: Activity
[21] = test system: SK-MEL-5; assay: Cytotoxicity against human SK-MEL-5 cells assessed as cell growth at 0.1 uM after 48 hrs by sulforhodamine B assay relative to control; format: functional; settings: SK-MEL-5, 48 h, read-out: Activity
[22] = test system: SW-620; assay: Cytotoxicity against human SW620 cells assessed as cell growth at 0.01 uM after 48 hrs by sulforhodamine B assay relative to control; format: functional; settings: SW-620, 48 h, read-out: Activity
[23] = test system: A498; assay: Cytotoxicity against human A498 cells assessed as cell growth at 0.01 uM after 48 hrs by sulforhodamine B assay relative to control; format: functional; settings: A498, 48 h, read-out: Activity
[24] = test system: UO-31; assay: Cytotoxicity against human UO31 cells assessed as growth inhibition after 48 hrs by sulforhodamine B assay; format: functional; settings: UO-31, 48 h
[25] = test system: A498; assay: Cytotoxicity against human A498 cells assessed as cell growth at 100 uM after 48 hrs by sulforhodamine B assay relative to control; format: functional; settings: A498, 48 h, read-out: Activity
[26] = test system: A498; assay: Cytotoxicity against human A498 cells assessed as cell growth at 1 uM after 48 hrs by sulforhodamine B assay relative to control; format: functional; settings: A498, 48 h, read-out: Activity
[27] = test system: RPMI-8226; assay: Cytotoxicity against human RPMI8226 cells assessed as growth inhibition after 48 hrs by sulforhodamine B assay; format: functional; settings: RPMI-8226, 48 h
[28] = test system: SK-MEL-28; assay: Cytotoxicity against human SK-MEL-28 cells assessed as cell growth at 10 uM after 48 hrs by sulforhodamine B assay relative to control; format: functional; settings: SK-MEL-28, 48 h, read-out: Activity
[29] = test system: NCI-H522; assay: Cytotoxicity against human NCI-H522 cells assessed as growth inhibition after 48 hrs by sulforhodamine B assay; format: functional; settings: NCI-H522, 48 h
[30] = test system: UACC-62; assay: Cytotoxicity against human UACC62 cells assessed as cell growth at 10 uM after 48 hrs by sulforhodamine B assay relative to control; format: functional; settings: UACC-62, 48 h, read-out: Activity
[31] = test system: U-251; assay: Cytotoxicity against human U251 cells assessed as cell growth at 100 uM after 48 hrs by sulforhodamine B assay relative to control; format: functional; settings: U-251, 48 h, read-out: Activity
[32] = test system: DU-145; assay: Cytotoxicity against human DU145 cells assessed as cell growth at 0.01 uM after 48 hrs by sulforhodamine B assay relative to control; format: functional; settings: DU-145, 48 h, read-out: Activity
[33] = test system: 786-0; assay: Cytotoxicity against human 786-0 cells assessed as growth inhibition after 48 hrs by sulforhodamine B assay; format: functional; settings: 786-0, 48 h
[34] = test system: MOLT-4; assay: Cytotoxicity against human MOLT4 cells assessed as cell growth at 0.01 uM after 48 hrs by sulforhodamine B assay relative to control; format: functional; settings: MOLT-4, 48 h, read-out: Activity
[35] = test system: MCF7; assay: Cytotoxicity against human MCF7 cells assessed as growth inhibition after 48 hrs by MTT assay; format: functional, cell-based; settings: MCF7, 48 h

COc1ccc(-c2cc(/C=C/C(=O)c3cc(OC)c(OC)c(OC)c3)[nH]n2)cc1OC
growth at 0.01 µM [1]: 97%
growth at 0.1 µM [2]: 73%
growth at 0.01 µM [3]: 98%
growth at 0.01 µM [4]: 91%
growth at 0.1 µM [5]: 102%
growth at 1 µM [6]: 82%
growth at 0.1 µM [7]: 100%
growth at 1 µM [8]: 53%
GI50 [9]: 3270 nM
LC50 [9]: 36900 nM
TGI [9]: 11800 nM
growth at 10 µM [10]: -64%
growth at 10 µM [11]: -95%
GI50 [12]: 200 nM
TGI [12]: 2260 nM
CC50 ([12]; read-out: LC50 (the source's name)): > 100000 nM
GI50 [13]: 1790 nM
LC50 [13]: 8390 nM
TGI [13]: 3880 nM
growth at 10 µM [14]: -80%
growth at 1 µM [15]: 67%
growth at 10 µM [16]: -7%
growth at 0.01 µM [17]: 100%
growth at 0.01 µM [18]: 93%
growth at 0.1 µM [19]: 91%
growth at 100 µM [20]: -94%
growth at 0.1 µM [21]: 102%
growth at 0.01 µM [22]: 98%
growth at 0.01 µM [23]: 99%
GI50 [24]: 1270 nM
LC50 [24]: 5290 nM
TGI [24]: 2590 nM
growth at 100 µM [25]: -91%
growth at 1 µM [26]: 65%
GI50 [27]: 290 nM
LC50 [27]: > 100000 nM
TGI [27]: 1660 nM
growth at 10 µM [28]: -49%
GI50 [29]: 1330 nM
LC50 [29]: 5390 nM
TGI [29]: 2680 nM
growth at 10 µM [30]: -61%
growth at 100 µM [31]: -94%
growth at 0.01 µM [32]: 108%
GI50 [33]: 1500 nM
LC50 [33]: 5600 nM
TGI [33]: 2900 nM
growth at 0.01 µM [34]: 99%
IC50 [35]: 1100 nM
